Test system: HBV DNA
Assay: HBV DNA assay (real-time qPCR of extracellular HBV DNA, HepG2.2.15 cells)
Format: cell-based
Conditions: Hepatitis B virus, 144 h, extracellular HBV DNA in supernatant, six days after treatment, read-out: IC50, anti HBV DNA production activity
Description: (§1) HepG2.2.15 cells (Acs et al. Proc Natl Acad Sci USA, 84, (1987), 4641-4), a constitutively HBV-expressing cell line were cultured in DMEM+Glutamax-I medium (Invitrogen, Carlsbad, Calif., USA), supplemented with 10% fetal bovine serum (Invitrogen) and G418 (Invitrogen) at a final concentration of 200 mg/L and maintained in 5% CO2 at 37° C.
The assay employs real-time qPCR (TaqMan) to directly measure extracellular HBV DNA copy number in the cell supernatant. HepG2.2.15 cells were plated in 96-well microtiter plates before treatment with complete medium (DMEM, Glutamax, 10% FBS, 1% Penicillin/Streptomycin, 250 μg/mL Genetycin, final DMSO concentration is 1%). Only the interior wells were utilized to reduce “edge effects” observed during cell culture, the exterior wells were filled with complete medium to help minimize sample evaporation. […]

| Compound | IC50 [µM] |
| --- | --- |
| COc1cc(F)c2c(c1)CN(c1cnc(-c3ncccn3)cn1)CC2 [Example 8, 5-Fluoro-7-methoxy-2-(5-pyrimidin-2-ylpyrazin-2-yl)-3,4-dihydro-1H-isoquinoline] | 0.292 |

Test system: HBsAg
Assay: HBsAg assay (CLIA on supernatant of HepG2.2.15 cells)
Format: cell-based, HBV
Conditions: Hepatitis B virus, HepG2.2.15, read-out: IC50 in HBsAg assay, HepG2.2.15 cells; HBsAg secretion reduced by 50% compared to the no drug control
Description: as §1
HepG2.2.15 cells were seeded in duplicate into white, 96-well plates at 1.5×10^4 cells/well. The cells were treated with a three-fold serial dilution series of the compounds in DMSO. The final DMSO concentration in all wells was 1% and DMSO was used as no drug control.
The HBsAg chemiluminescence immunoassay (CLIA) kit (Autobio Diagnostics Co., Zhengzhou, China, Catalog number: CL0310-2) was used to measure the levels of secreted HBV antigens semi-quantitatively. For the detection 50 μL/well culture supernatant was used and HBsAg was quantified using HBsAg chemiluminescence immunoassay (CLIA) kit (Autobio Diagnostics Co., Zhengzhou, China, Catalog number: CL0310-2), 50 μL of the supernatant was transferred to the CLIA assay plate and 50 μL of enzyme conjugate reagent was added into each well. The plates were sealed and gently agitated for 1 hour at room temperature. The supernatant-enzyme-mixture was discarded and wells were washed 6 times with 300 μL of PBS. The residual liquid was removed by plating the CLIA plate right side down on absorbent tissue paper. 25 μL of substrates A and B were added to each well. Luminance was measured using a luminometer (Mithras LB 940 Multimode Microplate Reader) after 10 minutes incubation. Dose-response curves were generated and the IC50 value was extrapolated by using the E-WorkBook Suite (ID Business Solutions Ltd., Guildford, UK). The IC50 was defined as the compound concentration at which HBsAg secretion was reduced by 50% compared to the no drug control.
The compounds according to formula I were tested for their capacity to inhibit HBsAg as described herein.

| Compound | IC50 [µM] |
| --- | --- |
| c1cnc(-c2ncc(N3CCc4ccccc4C3)cn2)nc1 [Example 1, 2-(2-Pyrimidin-2-ylpyrimidin-5-yl)-3,4-dihydro-1H-isoquinoline] | 3.17 |
| COc1cc2c(cc1OC)CN(c1cnc(-c3ncccn3)nc1)CC2 [Example 3, 6,7-Dimethoxy-2-(2-pyrimidin-2-ylpyrimidin-5-yl)-3,4-dihydro-1H-isoquinoline] | 2.32 |
| COc1ccc2c(c1)CCN(c1cnc(-c3ncccn3)nc1)C2 [Example 4, 6-Methoxy-2-(2-pyrimidin-2-ylpyrimidin-5-yl)-3,4-dihydro-1H-isoquinoline] | 5.2 |
| COc1cc(F)c2c(c1)CN(c1cnc(-c3ncccn3)nc1)CC2 [Example 5, 5-Fluoro-7-methoxy-2-(2-pyrimidin-2-ylpyrimidin-5-yl)-3,4-dihydro-1H-isoquinoline] | 0.355 |
| COc1cc(F)cc2c1CCN(c1cnc(-c3ncccn3)nc1)C2 [Example 6, 7-Fluoro-5-methoxy-2-(2-pyrimidin-2-ylpyrimidin-5-yl)-3,4-dihydro-1H-isoquinoline] | 0.454 |
| COc1cc(F)c2c(c1)C(C)N(c1cnc(-c3ncccn3)nc1)CC2 (stereo not shown) [Example 7, 5-Fluoro-7-methoxy-1-methyl-2-(2-pyrimidin-2-ylpyrimidin-5-yl)-3,4-dihydro-1H-isoquinoline] | 0.315 |
| COc1cc(F)c2c(c1)CN(c1cnc(-c3ncccn3)cn1)CC2 [Example 8, 5-Fluoro-7-methoxy-2-(5-pyrimidin-2-ylpyrazin-2-yl)-3,4-dihydro-1H-isoquinoline] | 0.445 |
| Clc1ccc2c(c1)CCN(c1cnc(-c3ncccn3)nc1)C2 [Example 9, 6-Chloro-2-(2-pyrimidin-2-ylpyrimidin-5-yl)-3,4-dihydro-1H-isoquinoline] | 2.52 |
| COc1cc2c(cc1OC)CN(c1ccc(-c3ccccn3)nc1)CC2 [Example 10, 6,7-Dimethoxy-2-[6-(2-pyridyl)-3-pyridyl]-3,4-dihydro-1H-isoquinoline] | 3.12 |
| COc1ccc2c(n1)CN(c1cnc(-c3ncccn3)nc1)CC2 [Example 12, 2-Methoxy-7-(2-pyrimidin-2-ylpyrimidin-5-yl)-6,8-dihydro-5H-1,7-naphthyridine] | 5.77 |
| COc1cc2c(cn1)CCN(c1cnc(-c3ncccn3)nc1)C2 [Example 13, 7-Methoxy-2-(2-pyrimidin-2-ylpyrimidin-5-yl)-3,4-dihydro-1H-2,6-naphthyridine] | 3.7 |
| COc1ccc2c(c1)CN(c1cnc(-c3ncccn3)nc1)CC2 [Example 14, 7-Methoxy-2-(2-pyrimidin-2-ylpyrimidin-5-yl)-3,4-dihydro-1H-isoquinoline] | 0.99 |
| c1cnc(-c2ncc(N3CCc4ccc(C5CC5)cc4C3)cn2)nc1 [Example 15, 7-Cyclopropyl-2-(2-pyrimidin-2-ylpyrimidin-5-yl)-3,4-dihydro-1H-isoquinoline] | 1.69 |
| CN(C)c1ccc2c(c1)CN(c1cnc(-c3ncccn3)nc1)CC2 [Example 16, N,N-Dimethyl-2-(2-pyrimidin-2-ylpyrimidin-5-yl)-3,4-dihydro-1H-isoquinolin-7-amine] | 0.406 |
| Cc1ccc2c(c1)CN(c1cnc(-c3ncccn3)nc1)CC2 [Example 17, 7-Methyl-2-(2-pyrimidin-2-ylpyrimidin-5-yl)-3,4-dihydro-1H-isoquinoline] | 2.01 |
| CNc1ccc2c(c1)CN(c1cnc(-c3ncccn3)nc1)CC2 [Example 18, N-Methyl-2-(2-pyrimidin-2-ylpyrimidin-5-yl)-3,4-dihydro-1H-isoquinolin-7-amine] | 4.64 |

| Compound | IC50 [µM] |
| --- | --- |
| Fc1cc(OCC(F)F)cc2c1CCN(c1cnc(-c3ncccn3)nc1)C2 [Example 19, 7-(2,2-Difluoroethoxy)-5-fluoro-2-(2-pyrimidin-2-ylpyrimidin-5-yl)-3,4-dihydro-1H-isoquinoline] | 0.255 |
| N#Cc1ccc2c(c1)CN(c1cnc(-c3ncccn3)nc1)CC2 [Example 20, 2-(2-Pyrimidin-2-ylpyrimidin-5-yl)-3,4-dihydro-1H-isoquinoline-7-carbonitrile] | 8.64 |
| Fc1cc(OCC2CC2)cc2c1CCN(c1cnc(-c3ncccn3)nc1)C2 [Example 21, 7-(Cyclopropylmethoxy)-5-fluoro-2-(2-pyrimidin-2-ylpyrimidin-5-yl)-3,4-dihydro-1H-isoquinoline] | 0.244 |
| Clc1ccc2c(c1)CN(c1cnc(-c3ncccn3)nc1)CC2 [Example 22, 7-Chloro-2-(2-pyrimidin-2-ylpyrimidin-5-yl)-3,4-dihydro-1H-isoquinoline] | 2.04 |
| CN(C)c1ccc2c(c1)CCN(c1cnc(-c3ncccn3)nc1)C2 [Example 23, N,N-Dimethyl-2-(2-pyrimidin-2-ylpyrimidin-5-yl)-3,4-dihydro-1H-isoquinolin-6-amine] | 2.21 |
| c1cnc(-c2ncc(N3CCc4cc(C5CC5)ccc4C3)cn2)nc1 [Example 24, 6-Cyclopropyl-2-(2-pyrimidin-2-ylpyrimidin-5-yl)-3,4-dihydro-1H-isoquinoline] | 1.38 |
| N#Cc1cccc2c1CCN(c1cnc(-c3ncccn3)nc1)C2 [Example 25, 2-(2-Pyrimidin-2-ylpyrimidin-5-yl)-3,4-dihydro-1H-isoquinoline-5-carbonitrile] | 1.19 |
| COC1CN(c2ccc3c(c2)CN(c2cnc(-c4ncccn4)nc2)CC3)C1 [Example 26, 7-(3-Methoxyazetidin-1-yl)-2-(2-pyrimidin-2-ylpyrimidin-5-yl)-3,4-dihydro-1H-isoquinoline] | 1.41 |
| Fc1cccc2c1CCN(c1cnc(-c3ncccn3)nc1)C2 [Example 27, 5-Fluoro-2-(2-pyrimidin-2-ylpyrimidin-5-yl)-3,4-dihydro-1H-isoquinoline] | 3.03 |
| NC(=O)COc1cc(F)c2c(c1)CN(c1cnc(-c3ncccn3)nc1)CC2 [Example 28, 2-[[5-Fluoro-2-(2-pyrimidin-2-ylpyrimidin-5-yl)-3,4-dihydro-1H-isoquinolin-7-yl]oxy]acetamide] | 8.52 |
| c1cnc(-c2ncc(N3CCc4c(cccc4C4CC4)C3)cn2)nc1 [Example 29, 5-Cyclopropyl-2-(2-pyrimidin-2-ylpyrimidin-5-yl)-3,4-dihydro-1H-isoquinoline] | 6.89 |
| CN(C)c1cccc2c1CCN(c1cnc(-c3ncccn3)nc1)C2 [Example 30, N,N-Dimethyl-2-(2-pyrimidin-2-ylpyrimidin-5-yl)-3,4-dihydro-1H-isoquinolin-5-amine] | 43.3 |
| COc1cc(Cl)c2c(c1)CN(c1cnc(-c3ncccn3)nc1)CC2 [Example 31, 5-Chloro-7-methoxy-2-(2-pyrimidin-2-ylpyrimidin-5-yl)-3,4-dihydro-1H-isoquinoline] | 0.068 |
| COc1cc(Cl)cc2c1CCN(c1cnc(-c3ncccn3)nc1)C2 [Example 32, 7-Chloro-5-methoxy-2-(2-pyrimidin-2-ylpyrimidin-5-yl)-3,4-dihydro-1H-isoquinoline] | 0.251 |
| CCC1c2cc(OC)cc(F)c2CCN1c1cnc(-c2ncccn2)nc1 (stereo not shown) [Example 33, Ethyl-5-fluoro-7-methoxy-2-(2-pyrimidin-2-ylpyrimidin-5-yl)-3,4-dihydro-1H-isoquinoline] | 0.79 |

Same assay, conditions: read-out: IC50 in HBsAg assay; HepG2.2.15 cells; HBsAg secretion reduced by 50% compared to the no drug control

| Compound | IC50 [µM] |
| --- | --- |
| Fc1ccc2c(c1)CN(c1cnc(-c3ncccn3)nc1)CC2 [Example 2, 7-Fluoro-2-(2-pyrimidin-2-ylpyrimidin-5-yl)-3,4-dihydro-1H-isoquinoline] | 22.5 |
| Fc1ccc2c(c1)CN(c1cnc(-c3ncccn3)nc1)CC2 [Example 11, 7-Fluoro-2-(2-pyrimidin-2-ylpyrimidin-5-yl)-3,4-dihydro-1H-isoquinoline] | 3.89 |

Reference: US11124495B2, “Tetrahydroisoquinolines and terahydronaphthyridines for the treatment of hepatitis B virus infection” (Hoffmann-La Roche Inc., priority 2016, dated 2021)
